Assay results published in patent publication US20200101176A1, “Small Highly Uniform Nanomedicine Compositions for Therapeutic, Imaging and Theranostic Applications” (THE REGENTS OF THE UNIVERSITY OF MICHIGAN, priority 2018, published 2020).

Test system: myocytes
Assay: PDT of heart tissue, cell death tracked by PI fluorescence
Conditions: in vivo
Excerpt: PI fluorescence is only from myocytes.
FIG. 25 are images showing an embodiment of a non-targeted PDT with Ce6, in accordance with the present inventions.
Turning to FIG. 15, there is shown that PI (a nuclear stain for dead cells) is only present in myocytes (3 different magnified areas).
Turning to FIG. 16, there is shown similar tissue sampling test as FIG. 15, but using non-targeted PDT.

chlorin e6 [Ce6]
damage to vasculature / non-target cells after PDT (PI fluorescence): vasculature damage | damage to vasculature / non-target cells after PDT (PI fluorescence) (listed as untargeted Ce6): kills everything
